Reference: patent US20160320408A1, “METHODS OF T CELL EPITOPE PROFILING, MAKING T CELL COMPOSITIONS, AND TREATING DISEASES” (priority 2013, published 2016)

What was measured:
Assay type in all cases: cell-based, human
[1] = test system: donor cells (PBMC)
[2] = test system: PBMC from a healthy donor
[3] = test system: PBMC from a healthy donor; remark: listed apart in the source

IDKISDVSTIVPYIGPALNI [TT4]
generation of peptide-reactive T-cell line (in words) [1]: successfully generated
IFNγ response (in words) [2]: only one operator (HK) detecting a robust response

NLVPMVATV [CMVpp65]
detection of IFNγ secreting T-cells, direct ex vivo ELISpot (in words) [3]: readily detectable

IVVYNLQSKITLPNDRTTPV [TT2]
IFNγ over a positivity threshold set at 2.5-fold above the negative control (no peptide) cultures [2]: 0 pg/mL

DIKNDLYEKTLNDYKAIANK [TT1]
IFNγ over a positivity threshold set at 2.5-fold above the negative control (no peptide) cultures [2]: 0 pg/mL
